Like-named read-outs stand apart in the source and are kept apart here.
Test system: spores of Bacillus subtilis
Format: cell-based
Experimental: The efficacy of the inventive process is assessed using a time kill suspension test method and spores of Bacillus subtilis.
Peracetic acid (PAA) and hydrogen peroxide (H2O2) are prepared as concentrated stocks (3× concentrate). Each test contains 100 μl of the PAA concentrate and 100 μl of the H2O2 concentrate. Controls containing only PAA or H2O2 are also prepared. These contain 100 μl of either the PAA concentrate or H2O2 concentrate and 100 μl of de-ionized water. To each test, 100 μl of spores are added while starting the timer concurrently. The samples are mixed thoroughly. The temperature of the samples is room temperature. At the appropriate contact times, 10 μl of the appropriate test sample are placed into 90 μl of the appropriate neutralizing solution, mixed thoroughly and incubated for at least 10 minutes. Ten fold serial dilutions are prepared through 10^−6 and plated using the drop counting method. The plates are then incubated aerobically at 37° C. for 1-2 days. Following incubation, colony forming units (CFU) are counted using standard plate count techniques and converted to log 10 values for analysis.

SMILES	Time (min) to achieve 4 log reduction (PAA 0.005% by weight, H2O2 0.00% (PAA alone), extrapolated from data for PAA 0.08, 0.16 and 0.32%)	Time (min) to achieve 4 log reduction (PAA 0.01% by weight, H2O2 0.00% (PAA alone), extrapolated from data for PAA 0.08, 0.16 and 0.32%)	Time (min) to achieve 4 log reduction (PAA 0.02% by weight, H2O2 0.00% (PAA alone), extrapolated from data for PAA 0.08, 0.16 and 0.32%)	Time (min) to achieve 4 log reduction (PAA 0.04% by weight, H2O2 0.00% (PAA alone), extrapolated from data for PAA 0.08, 0.16 and 0.32%)	Time (min) to achieve 4 log reduction (PAA 0.08% by weight, H2O2 0.00% (PAA alone))	Time (min) to achieve 4 log reduction (PAA 0.16% by weight, H2O2 0.00% (PAA alone))	Time (min) to achieve 4 log reduction (H2O2 0.10% by weight, PAA 0.00% (H2O2 alone), extrapolated from experimental data)	Time (min) to achieve 4 log reduction (H2O2 0.20% by weight, PAA 0.00% (H2O2 alone), extrapolated from experimental data)	Time (min) to achieve 4 log reduction (H2O2 0.40% by weight, PAA 0.00% (H2O2 alone), extrapolated from experimental data)	Time (min) to achieve 4 log reduction (H2O2 0.80% by weight, PAA 0.00% (H2O2 alone))	Time (min) to achieve 4 log reduction (H2O2 1.60% by weight, PAA 0.00% (H2O2 alone))	Time (min) to achieve 4 log reduction (H2O2 3.20% by weight, PAA 0.00% (H2O2 alone))	Time (min) to achieve 4 log reduction (H2O2 6.40% by weight, PAA 0.00% (H2O2 alone), room temperature)
CC(=O)OO [PAA, Peracetic acid]	711625 min	67744.68 min	6449.101 min	613.9362 min	70.40 min	4.64 min	–	–	–	–	–	–	–
OO [H2O2, hydrogen peroxide]	–	–	–	–	–	–	2305.13 min	1213.99 min	639.34 min	343.04 min	168.96 min	97.28 min	48.64 min

— patent US10463754B2, “Process for decontaminating or sterilizing an article” (priority 2014, dated 2019)
